This note sets out measurements from patent publication US20120195488A1, “Methods and Compositions Related to Cellular Assays” (University of utah Research Foundation, priority 2009, published 2012).

What all share (assay type): cell-based
One test has as its system γH2AX. Kind of test: Fraction of γH2AX positive cells in taxol treated MCF7 cells (multi-well immunofluorescence imaging). The source says: (§1) Many cells (typically >1,000) over a very large field of view were imaged. At least two stainings were used simultaneously. An optional third staining, here propidium iodide (PI), was also used as a nuclear locator.
(§2) The cells were imaged in 3 channels which corresponded to the three stainings. The third channel was used for cell profiling. In a first data processing step, cells were automatically identified in the images by their signal and/or shape in one or both of the recorded channels. Alternatively, cells were identified using a nuclear counterstain and then the activator(s) were read. […] From the distributions S1(c) and S2(c), characteristic numbers were derived. For example (at the example of channel 1, same valid for channel 2).
Fraction of positive cells: F1=N1+/N
(§3) The imaging and analysis procedure were repeated for cells which were fixed at different time points t and under influence of different drug doses dd. For every condition (time point and drug dose), the parameters above were determined.
(§4) Hela, MCF7, as well as primary cells from a patient were cultured for growth in this assay. Cells were obtained and seeded initially at ˜100 cells per well/96 well plate . The cells were grown in DMEM, with 10% Fetal Falf Serum, ultra pure, along with 5% Pen/Strep. The cells after being plated were placed in an incubator at […]. with 5% CO2 and grown for a period of 28 hours to allow for adhesion and division . If the cell took to the plate and were growing normally they were allowed to continue for an additional 24 hours. […] Here, the experiment first staining for only one marker using a green label so that the read was unpolluted by any other color that could show cross reactivity with the green (as there is RED, PI staining the nucleus already, which has no cross reactivity), once the data was collected and the data satisfied that the independent signal was reproducible, a double staining was performed by adding the second marker and using a orange dye with a wavelength of 555. […]

The next test has as its system p-ATM. As to the kind of experiment: Average p-ATM signal per cell in taxol treated MCF7 cells.
From the text: as §1, §2
Average signal of all cells: <S1>
as §3
as §4, with “hours. Cells were then treated with either Taxol, Doxirubicin, or Ionizing Radiation or a combination of all 3.” for “hours.”

The test system of a further test is MCF7 cells. Kind of test: Total number of cells N in taxol treated MCF7 cells. As to conditions: for killing of cells (total number of cells): all drug doses (10 nm to 5 um).
From the text: as §1, §2, §3
Hela, MCF7, as well as primary cells from a patient were cultured for growth in this assay. Cells were obtained and seeded initially at ˜100 cells per well/96 well plate . The cells were grown in DMEM, with 10% Fetal Falf Serum, ultra pure, along with 5% Pen/Strep. The cells after being plated were placed in an incubator at […]. with 5% CO2 and grown for a period of 28 hours to allow for adhesion and division . If the cell took to the plate and were growing normally they were allowed to continue for an additional 24 hours. Cells were then treated with either Taxol, Doxirubicin, or Ionizing Radiation or a combination of all 3. All drugs were added in the logarithmic titrations shown in the data at time point zero. The cells were then collected (fixed with −20 degree methanol for 7 minutes, washed with PBS, washed again and stored in PBS until the entire plate of titrations were finished. After collection, the nucleus of each cell was stained using PI (far RED) by adding PI for 15 minutes and then washing 3× the cells with sterile PBS . Once the nuclei had been stained, each well was stained for either phosphor ATM or gamma H2AX or both using primary antibodies at a dilution of 1:1000 in a PBS/Block mix for 1 hour at 37 degrees. The cell were then washed 3× with PBS and then treated with the appropriate secondary . Here, the experiment first staining for only one marker using a green label so that the read was unpolluted by any other color that could show cross reactivity with the green (as there is RED, PI staining the nucleus already, which has no cross reactivity), once the data was collected and the data satisfied that the independent signal was reproducible, a double staining was performed by adding the second marker and using a orange dye with a wavelength of 555. […]

In the case of `CC(=O)O[C@H]1C(=O)[C@@]2(C)[C@H]([C@H](OC(=O)c3ccccc3)[C@]3(O)C[C@H](OC(=O)[C@H](O)[C@@H](NC(=O)c4ccccc4)c4ccccc4)C(C)=C1C3(C)C)[C@]1(OC(C)=O)CO[C@@H]1C[C@@H]2O` [Taxol], the “time point at which γH2AX fluorescence reaches its lowest point” value in the test on γH2AX (5 um dose) was 12 h. Also, the Emax in the test with γH2AX (Homo sapiens, all 4 doses 10 nm, 100 nm, 1 um and 5 um, 1 hour pulse, 4 hour post treatment time point, read-out: maximum response, induction rate of γH2AX (fraction of γH2AX positive cells)) is roughly 100%. Also, the “effective on a population” value with γH2AX (highest dose) is recorded as 30%. The “time at which average p-ATM signal per cell is lowest” value in the test with p-ATM (5 uM) is “approximately 4 hours”. Also, in the test with p-ATM (5 um dose), the “p-ATM fluorescent signal, initial elevation (maximum)” value was roughly 2300 a.u. Besides, the “p-ATM fluorescent signal, lowest point” value in the test on p-ATM (5 um dose, within 4 hours) was roughly 1000 a.u. In addition, the “killing of the entire cell population” value in the test with MCF7 cells (5 um dose) is listed as “does not kill the entire population”. In addition, the “time point at which cell killing was most effective” value in the test on MCF7 cells (all drug doses) came out at 4 h. In addition, the “killing of cells (total number of cells)” value in the test with MCF7 cells is “all treatments were effective in killing cells”; in the test on MCF7 cells (listed as taxol), “kill cells in a titration dependent fashion”.
